Measured values published in patent US20110053897A1 (IRM LLC, priority 2009, published 2011).
Read-outs that look alike come from different tables or passages of the source.

Molecular target: T1, Syk kinase (Homo sapiens, UniProt P43405)
T1 construct: purchased
Assay: Syk kinase inhibition, Caliper LabChip off-chip mobility-shift kinase assay
Assay type: biochemical
Settings: read-out: Syk Enzyme IC50
Procedure, shortened: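 Purified Syk pre-incubated 15 min with compound in 100 mM HEPES pH 7.5, 1 mM DTT, 10 mM MgCl2 or MnCl2, 0.002% Brij-35, then 1.5 μM fluorescein peptide and ATP at apparent KM added; 1–1.5 h at room temperature, 4% DMSO, EDTA stop. Microfluidic mobility-shift product/substrate conversion gave % inhibition; IC50 from 12-point series (10–0.00003 μM) by 4-parameter fit.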

| SMILES | IC50 | IC50 (Caliper LabChip assay) |
| --- | --- | --- |
| COc1cncc(-c2cc3cc[nH]c(=O)c3c(Nc3ccc(CCN4CCN5CCCC5C4)cc3)n2)n1 (centres unmarked) [compound 7] | 53 nM | – |
| Cc1ccnc(Nc2cc3cc[nH]c(=O)c3c(NCC(F)(F)F)n2)c1 [compound 516] | 152 nM | – |
| COCCN1CCC(c2ccc(Nc3nc(-c4cnc(C)nc4)cc4cc[nH]c(=O)c34)cc2C)CC1 [compound 71] | 14 nM | – |
| CCn1ccc2cc(Nc3cnccn3)nc(Nc3ccc(C(=O)N4CCC(O)C4)cc3)c2c1=O (centres unmarked) [compound 833] | – | 263 nM |
| Cc1cc(Nc2nc(Nc3ccc(S(N)(=O)=O)cn3)cc3cc[nH]c(=O)c23)ccc1C1CCN(C2CC2)CC1 [compound 258] | 61 nM | – |
| C[C@@H]1CN(c2ccc(Nc3nc(CCC(=O)O)cc4cc[nH]c(=O)c34)cn2)CCO1 [compound 243] | 307 nM | – |
| Cc1ccnc(Nc2cc3cc[nH]c(=O)c3c(NC[C@@H](O)c3cccc(Cl)c3)n2)c1 [compound 539] | 915 nM | – |
| Cn1ccc2cc(Nc3cnccn3)nc(NCC(F)(F)F)c2c1=O [compound 464] | 81 nM | – |
| O=c1[nH]ccc2cc(CCCO)nc(Nc3ccc(N4CCOCC4)cc3)c12 [compound 247] | 45 nM | – |
| Cc1ccnc(Nc2cc3ccn(C)c(=O)c3c(Nc3ccc(C(N)=O)cc3)n2)c1 [compound 483] | 62 nM | – |
| O=c1[nH]ccc2cc(NC3CCC(O)CC3)nc(Nc3ccc(N4CCOCC4)cc3)c12 (centres unmarked) [compound 657] | – | 152 nM |
| Cc1cc(Nc2nc(CCO)cc3cc[nH]c(=O)c23)ccc1C1CCN(C2CC2)CC1 [compound 246] | 41 nM | – |
| CC(=O)c1cc2cc[nH]c(=O)c2c(Nc2ccc(C3CCN(C4CC4)CC3)c(C)c2)n1 [compound 221] | 253 nM | – |
| COCC(C)N1CCC(c2ccc(Nc3nc(-c4cncc(OC)n4)cc4cc[nH]c(=O)c34)cc2C)CC1 (centres unmarked) [compound 174] | 14 nM | – |
| CCC(C)C(=O)N1CCC(c2ccc(Nc3nc(-c4cncc(OC)n4)cc4cc[nH]c(=O)c34)cc2C)CC1 (centres unmarked) [compound 76] | 225 nM | – |
| CCN1CCN(C(=O)c2ccc(Nc3nc(-c4cncc(OC)n4)cc4cc[nH]c(=O)c34)cc2)CC1 [compound 64] | 35 nM | – |
| CCn1ccc2cc(-c3cnc(N)nc3)nc(N[C@H]3C[C@@H](CO)C3)c2c1=O [compound 748] | – | 7 nM |
| Cc1ncc(-c2cc3cc[nH]c(=O)c3c(Nc3ccc(N4C[C@@H](C)O[C@@H](C)C4)nc3)n2)cn1 [compound 17] | 163 nM | – |
| Cn1ccc2cc(-c3cnc(N)nc3)nc(NC3CC3)c2c1=O [compound 38] | 62 nM | – |

The next lines start with the values.

| IC50 | IC50 (Caliper LabChip assay) | SMILES |
| --- | --- | --- |
| 177 nM | – | CCNC(=O)Cn1ccc2cc(Nc3cnccn3)nc(NC(C)C)c2c1=O [compound 321] |
| – | 13 nM | C[C@H](O)c1ccnc(Nc2cc3ccn(CCO)c(=O)c3c(NC(C)(C)C)n2)c1 [compound 714] |
| – | 48 nM | CC(C)(C)Nc1nc(Nc2cc(OCC3CCOC3)ncn2)cc2ccn(CC(O)CO)c(=O)c12 (centres unmarked) [compound 887] |
| – | 251 nM | CC(C)(C)Nc1nc(Nc2cc(CN3CCCCC3)ccn2)cc2ccn(CCO)c(=O)c12 [compound 604] |
| – | 370 nM | O=c1c2c(NC3CCS(=O)(=O)C3)nc(Nc3cnccn3)cc2ccn1CCO (centres unmarked) [compound 975] |
| – | 19 nM | CC(C)(C)Nc1nc(Nc2cnccn2)cc2ccn(CCC#N)c(=O)c12 [compound 1004] |
| – | 595 nM | CN(C)CCNC(=O)c1ccnc(Nc2cc3ccn(CCO)c(=O)c3c(NC(C)(C)C)n2)c1 [compound 683] |
| 37 nM | – | Cc1ccnc(Nc2cc3ccn(C)c(=O)c3c(N[C@@H](C)CO)n2)c1 [compound 323] |
| – | 12 nM | CC(O)c1ccnc(Nc2cc3ccn(CCO)c(=O)c3c(NC(C)(C)C)n2)c1 (centres unmarked) [compound 700] |
| – | 3 nM | CC(C)n1ccc2cc(Nc3cnccn3)nc(N[C@H]3CC[C@@H](CO)C3)c2c1=O [compound 988] |
| – | 64 nM | Cc1cc(-c2ccnc(Nc3cc4ccn(CCO)c(=O)c4c(NC(C)(C)C)n3)c2)ccn1 [compound 854] |
| – | 1020 nM | CC(C)(C)Nc1nc(Nc2nccs2)cc2ccn(CCO)c(=O)c12 [compound 692] |
| 46.2 nM | – | CCn1ccc2cc(Nc3ncccn3)nc(NC[C@@H]3CC[C@@H](O)C3)c2c1=O [compound 413] |
